Consider four compounds from ChEMBL document CHEMBL3817830, “Discovery of a novel binding pocket for CYP 2C9 inhibitors: crystallography, pharmacophore modelling and inhibitor SAR” (Medchemcomm, 2016).

In data set [1] the target is T1, Progesterone receptor (Homo sapiens, UniProt P06401).
T1 sequence (P06401 whole entry): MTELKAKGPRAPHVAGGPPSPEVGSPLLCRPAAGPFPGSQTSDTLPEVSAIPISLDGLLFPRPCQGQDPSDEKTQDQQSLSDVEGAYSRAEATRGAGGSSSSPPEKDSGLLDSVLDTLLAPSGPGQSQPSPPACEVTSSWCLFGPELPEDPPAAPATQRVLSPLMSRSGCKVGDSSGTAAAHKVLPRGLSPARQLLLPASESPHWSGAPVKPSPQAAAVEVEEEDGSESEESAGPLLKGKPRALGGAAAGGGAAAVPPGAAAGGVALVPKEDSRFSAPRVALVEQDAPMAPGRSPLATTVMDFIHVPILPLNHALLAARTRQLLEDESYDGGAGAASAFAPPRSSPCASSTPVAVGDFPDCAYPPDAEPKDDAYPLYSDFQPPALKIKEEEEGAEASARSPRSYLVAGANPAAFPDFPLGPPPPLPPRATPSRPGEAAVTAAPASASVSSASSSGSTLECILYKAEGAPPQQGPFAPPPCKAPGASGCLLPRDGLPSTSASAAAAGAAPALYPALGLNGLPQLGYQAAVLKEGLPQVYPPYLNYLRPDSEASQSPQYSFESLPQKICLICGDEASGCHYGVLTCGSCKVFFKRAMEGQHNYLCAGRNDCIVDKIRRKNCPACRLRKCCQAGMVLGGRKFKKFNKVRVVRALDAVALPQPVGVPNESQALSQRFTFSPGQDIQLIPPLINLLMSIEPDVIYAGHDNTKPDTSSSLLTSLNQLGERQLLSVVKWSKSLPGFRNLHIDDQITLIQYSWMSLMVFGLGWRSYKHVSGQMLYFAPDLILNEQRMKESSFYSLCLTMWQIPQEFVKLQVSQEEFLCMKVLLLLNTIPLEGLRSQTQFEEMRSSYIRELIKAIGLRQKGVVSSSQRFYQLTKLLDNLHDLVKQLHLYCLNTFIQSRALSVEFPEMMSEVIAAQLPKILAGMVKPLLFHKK
Briefly: Antagonist activity at PR (unknown origin).

Data set [2] in a line: Dissociation constant, pKa of the compound. Format: physicochemical.
Data set [3] concerns the target CYP2C9 (Homo sapiens, UniProt P11712). Briefly: Inhibition of CYP2C9 (unknown origin) at 3 uM. Format: ADME.

Sequence of CYP2C9 (P11712 whole entry): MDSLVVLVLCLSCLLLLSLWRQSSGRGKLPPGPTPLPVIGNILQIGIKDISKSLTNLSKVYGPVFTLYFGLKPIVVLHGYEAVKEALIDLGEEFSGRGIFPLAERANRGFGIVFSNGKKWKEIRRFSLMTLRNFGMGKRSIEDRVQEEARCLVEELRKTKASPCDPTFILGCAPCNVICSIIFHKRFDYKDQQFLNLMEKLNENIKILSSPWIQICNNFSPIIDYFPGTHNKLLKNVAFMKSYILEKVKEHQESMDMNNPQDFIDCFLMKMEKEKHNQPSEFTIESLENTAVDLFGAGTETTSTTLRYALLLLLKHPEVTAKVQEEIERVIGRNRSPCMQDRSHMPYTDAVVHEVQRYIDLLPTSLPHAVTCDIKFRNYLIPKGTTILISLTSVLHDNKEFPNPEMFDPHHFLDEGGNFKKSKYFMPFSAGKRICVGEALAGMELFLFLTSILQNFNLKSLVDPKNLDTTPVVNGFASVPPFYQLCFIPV

As usually defined, the IC50 is the midpoint of a concentration-inhibition curve. Low readings indicate higher potency, high ones lower potency. What is called pKa is the negative logarithm of the acid dissociation constant. Low readings indicate a group that gives up its proton readily, high ones a group that holds its proton tightly. By inhibition is commonly meant the relative decrease from the control value, in per cent. A higher inhibition goes with a strong effect. For the compound `COc1cc(NS(=O)(=O)C(F)(F)F)cc(OC)c1Oc1ccc(C#N)c(Cl)c1`, the IC50 in data set [1] was determined as 175 nM. For the same compound, the pKa in data set [2] is 4.5. Further, in data set [3], at 3 µM the inhibition was 95%.
`N#Cc1ccc(O[C@H]2CC[C@H](NS(=O)(=O)C(F)(F)F)CC2)cc1Cl`: in data set [1], the IC50 stood at 43 nM. In addition, at 3 µM the inhibition in data set [3] was 77%.
Taken in the same sequence, the figures for `CS(=O)(=O)N[C@H]1CC[C@H](Oc2ccc(C#N)c(Cl)c2)CC1` were 107 nM and 0%.
`COc1cc(NS(C)(=O)=O)cc(OC)c1Oc1ccc(C#N)c(Cl)c1` registered an IC50 in data set [1] of 26 nM. In data set [2], this compound registered a pKa of 8.5. This compound also had an inhibition at 3 µM in data set [3] of 9%.
